Patent publication US11820756B2, “Bradykinin B2 receptor antagonists” (Pharvaris Netherlands B.V., priority 2017, dated 2023)

Molecular target: T1, human bradykinin B2 receptor (hB2R) (Homo sapiens, UniProt P30411)
T1 sequence (P30411 1-391): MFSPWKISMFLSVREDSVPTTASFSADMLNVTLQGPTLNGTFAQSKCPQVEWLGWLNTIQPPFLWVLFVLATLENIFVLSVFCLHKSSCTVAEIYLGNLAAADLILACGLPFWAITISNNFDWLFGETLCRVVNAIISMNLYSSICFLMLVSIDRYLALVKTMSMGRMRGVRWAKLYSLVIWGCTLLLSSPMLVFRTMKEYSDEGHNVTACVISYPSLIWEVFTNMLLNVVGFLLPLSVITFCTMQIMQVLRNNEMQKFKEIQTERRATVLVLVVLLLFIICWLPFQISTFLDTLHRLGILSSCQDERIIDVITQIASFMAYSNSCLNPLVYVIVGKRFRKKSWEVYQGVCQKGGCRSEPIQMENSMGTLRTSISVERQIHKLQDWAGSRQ
Assay: cell-based human bradykinin B2 receptor calcium mobilization (hB2R-CaM) assay
Details: HTS041C cells, bradykinin at EC80, calcium mobilization; read-out: IC50-value towards human bradykinin B2 receptor (hB2R)
Description: The following cell-based human bradykinin B2 receptor calcium mobilization (hB2R-CaM) assay was used to determine the antagonistic activity of compounds selected from the example compounds Nos. 1 to 168 towards human bradykinin B2 receptor (hB2R). The assay is defined herein as a standard in vitro B2 receptor activity assay, which can be used to determine IC50 values of the compounds according to the present invention, e. g. the compounds shown in Examples 1-11.
The antagonistic activity of compounds according to the present invention was investigated with the hB2R-CaM assay using the B2 Bradykinin Receptor Stable Cell Line HTS041C (Eurofins, St. Charles MO) and the FLIPR Calcium 6 Assay Kit (Molecular Devices, Wokingham, UK) according to the instructions of the providers. CaM assay measurements were performed with a Flexstation 3 System (Molecular Devices) which allows the precise addition of compounds (B2R antagonists) and bradykinin (B2R agonist) to the cells and adjacent continuous recording of the time-dependent CaM assay signals.
HTS041C cells were cultured in high glucose DMEM cell culture medium (Lonza) supplemented with 10% heat-inactivated FBS (PAN Biotech), 10 mM HEPES, Penicillin/Streptomycin (200 U/mL, 200 μg/mL), 1× non-essential amino acids (Lonza), and 250 μg/mL G418 (Invivogen) in cell incubator at 37° C. in a 5% CO2 atmosphere.
One day before the CaM assay experiments cells were seeded in 200 μL DMEM cell culture medium with reduced FBS (5%) and without G418 on clear bottom black 96 well plates (ThermoFisher #165305). Cell starvation was carried out by incubation (37° C., 5% CO2) of 70.000 cells/well for 24 h to 28 h. Immediately prior calcium dye-loading the medium was carefully aspirated and cells were washed with Hank's balanced salt solution (HBSS, Gibco) containing Ca^2+, Mg^2+ and 20 mM HEPES, adjusted to pH 7.4 (HBSS+). Calcium Dye Loading of the Cells:
For calcium dye-loading one FLIPR 6 assay aliquot was dissolved in 20 mL HBSS+. 150 μL of the dye loading solution was added to cell plate and incubated for 120 min at 37° C. and 5% CO2. After dye loading the cell plate was immediately transferred to the pre-warmed (37° C.) Flexstation 3 System for CaM assaying.
Freshly prepared compound (B2 receptor antagonists) dilution series (8 pt, n=2) and bradykinin (B2 receptor agonist) solution in non-binding plates (Costar) were transferred to the Flexstation System (source plate) shortly before starting the experiment. Bradykinin was added in EC80 concentration determined in n>3 preliminary experiments with 8 pt concentration response curves (n=8)). CaM assay was executed by Flexstation 3 System starting with recording of calcium-sensitive dye fluorescence in bottom-read Flex modus with ex/em=485 nm/525 nm, cut off(em)=[…]. After 20 s, 50 μL of 4-fold concentrated compound dilutions were added to the cells resulting in a final DMSO (Sigma) concentration of 0.1% in the cell plate. CaM signals were monitored for 80 s after additions for detection of potential agonistic activities. Prior to bradykinin stimulus compound- and vehicle-treated cells were incubated for 25 min at 37° C. within the Flexstation System. Then 50 μL of a 5-fold concentrated bradykinin solution (HBSS+, 0.1% DMSO) was added to trigger CaM signals (Read out: Max-Min values) which were measured for 80 s post bradykinin stimulus.
IC50 determinations were performed by 4 parameter logistic model curve fitting of the 8 pt (n=2) compound concentration response curves using XLFIT (IDBS) software.
Relative IC50 values of the test compounds were determined with the same hB2R-CaM assay as in Example 12.

IC50 [nM]	Structure (SMILES)
≤ 50	CC[C@H](NC(=O)C(F)F)c1cc(F)cc(Cl)c1COc1cccc2c(-c3ncnn3C)cc(C)nc12 [Compound 148]
≤ 50	Cc1cc(-c2ncnn2C)c2cccc(OCc3c(Cl)cc(F)cc3[C@H](C)NC(=O)CC(F)F)c2n1 [Compound 197]
≤ 50	Cc1cc(-c2ccnn2C)c2cccc(OCc3c(Cl)cc(F)cc3[C@H](C)NC(=O)COC(F)F)c2n1 [Compound 175]
≤ 50	Cc1cc(-c2ncnn2C)c2cccc(OCc3c(Cl)cc(F)cc3[C@H](CO)NC(=O)COC(F)F)c2n1 [Compound 190]
≤ 50	[2H][C@@](C)(NC(=O)c1cocn1)c1cc(F)cc(Cl)c1COc1cccc2c(-n3ncnc3C)cc(C)nc12 [Compound 198]
≤ 50	Cc1cc(-n2ncnc2C)c2cccc(OCc3c(Cl)cc(F)cc3[C@H](C)NC(=O)C(C)F)c2n1 (stereo partly shown) [Compound 193]
51 to 250	CC[C@H](NC(=O)c1coc(C)n1)c1cc(F)cc(Cl)c1COc1cccc2c(-n3cc(F)cn3)cc(C)nc12 [Compound 152]
≤ 50	[2H]C([2H])([2H])[C@H](NC(=O)COC(F)F)c1cc(F)cc(Cl)c1COc1cccc2c(-c3ncnn3C)cc(C)nc12 [Compound 202]
≤ 50	Cc1cc(-c2ncc(C#N)n2C)c2cccc(OCc3c(Cl)cc(F)cc3[C@H](C)NC(=O)CC(F)(F)F)c2n1 [Compound 206]
≤ 50	Cc1cc(-n2ncnc2C)c2cccc(OCc3c(Cl)cc(F)cc3[C@H](C)NC(=O)COC(F)(F)F)c2n1 [Compound 161]
≤ 50	Cc1cc(-c2ncnn2C)c2cccc(OCc3c(Cl)cc(F)cc3[C@H](CO)NC(=O)c3cnco3)c2n1 [Compound 191]
51 to 250	CC[C@H](NC(=O)c1ccon1)c1cc(F)cc(Cl)c1COc1cccc2c(-n3cc(F)cn3)cc(C)nc12 [Compound 153]
≤ 50	Cc1cc(-c2[nH]ncc2C)c2cccc(OCc3c(Cl)cc(F)cc3[C@H](C)NC(=O)[C@@H](C)O)c2n1 [Compound 188]
≤ 50	Cc1cc(-c2ccnn2C)c2cccc(OCc3c(Cl)cc(F)cc3[C@H](C)NC(=O)C(C)(C)O)c2n1 [Compound 184]
≤ 50	Cc1cc(-c2ncnn2C)c2cccc(OCc3c(Cl)cc(F)cc3[C@H](C)NC(=O)c3ccccn3)c2n1 [Compound 164]
≤ 50	Cc1cc(-c2ccnn2C)c2cccc(OCc3c(Cl)cc(F)cc3[C@H](C)NC(=O)[C@@H](C)O)c2n1 [Compound 192]
≤ 50	Cc1cc(-c2ccnn2C)c2cccc(OCc3c(Cl)cc(F)cc3[C@H](C)NC(=O)C(F)F)c2n1 [Compound 176]

Further lines, the compound ahead of its results:

Structure (SMILES)	IC50 [nM]
Cc1cc(-n2cc(F)cn2)c2cccc(OCc3c(Cl)cc(F)cc3[C@H](C)NC(=O)c3ccccn3)c2n1 [Compound 123]	51 to 250
Cc1cc(-n2cnc(C)n2)c2cccc(OCc3c(Cl)cc(F)cc3[C@H](C)NC(=O)COC(F)F)c2n1 [Compound 10, (S)—N-(1-(3-chloro-5-fluoro-2-((2-methyl-4-(3-methyl-1H-1,2,4-triazol-1-yl)quinolin-8-yloxy)methyl)phenyl)ethyl)-2-(difluoromethoxy)acetamide]	51 to 250
Cc1cc(-n2cc(F)cn2)c2cccc(OCc3c(Cl)cc(F)cc3[C@H](C)NC(=O)CO)c2n1 [Compound 49]	51 to 250
Cc1cc(-n2cc(F)cn2)c2cccc(OCc3c(Cl)cc(F)cc3[C@H](C)NC(=O)[C@@H]3COC(C)(C)O3)c2n1 [Compound 61]	≤ 50
Cc1cc(-n2cc(F)cn2)c2cccc(OCc3c(Cl)cc(F)cc3[C@H](C)NC(=O)c3cc(C)n(C)n3)c2n1 [Compound 86]	51 to 250
Cc1cc(-n2nc(C)nc2C)c2cccc(OCc3c(Cl)cc(F)cc3[C@H](C)NC(=O)COC(F)(F)F)c2n1 [Compound 139]	≤ 50
COCCC(=O)N[C@@H](CO)c1cc(F)cc(Cl)c1COc1cccc2c(-n3cc(F)cn3)cc(C)nc12 [Compound 107]	≤ 50
Cc1cc(-n2nc(C)nc2C)c2cccc(OCc3c(Cl)cc(F)cc3[C@H](C)NC(=O)c3cc(C)on3)c2n1 [Compound 136]	51 to 250
Cc1cc(-n2cc(F)cn2)c2cccc(OCc3c(Cl)cc(F)cc3[C@H](C)NC(=O)[C@@H]3CCCO3)c2n1 [Compound 14]	≤ 50
Cc1cc(-n2cc(F)cn2)c2cccc(OCc3c(Cl)cc(F)cc3[C@H](C)NC(=O)[C@H](C)CO)c2n1 [Compound 59]	≤ 50
Cc1cc(-n2nccn2)c2cccc(OCc3c(Cl)cc(F)cc3[C@H](C)NC(=O)[C@H](C)O)c2n1 [Compound 32]	51 to 250
Cc1cc(-n2cc(F)cn2)c2cccc(OCc3c(Cl)cc(F)cc3[C@H](C)NC(=O)C3(C)COC3)c2n1 [Compound 58]	≤ 50
Cc1cc(-c2ncnn2C)c2cccc(OCc3c(Cl)cc(F)cc3[C@H](C)NC(=O)c3cocn3)c2n1 [Compound 128]	≤ 50
Cc1cc(-n2cc(F)cn2)c2cccc(OCc3c(Cl)cc(F)cc3[C@H](C)NC(=O)C3CN(C)C3)c2n1 [Compound 65]	251 to 1000
Cc1cc(-c2ncnn2C)c2cccc(OCc3c(Cl)cc(F)cc3[C@H](C)NC(=O)[C@@H](C)O)c2n1 [Compound 63]	≤ 50
Cc1cc(-c2ncnn2C)c2cccc(OCc3c(Cl)cc(F)cc3[C@H](C)NC(=O)C3CCC(C)(C)O3)c2n1 (stereo partly shown) [Compound 118]	≤ 50
Cc1cc(-n2nccn2)c2cccc(OCc3c(Cl)cc(F)cc3[C@H](C)NC(=O)[C@@H](C)O)c2n1 [Compound 31]	51 to 250
Cc1cc(-n2cc(F)cn2)c2cccc(OCc3c(Cl)cc(F)cc3[C@H](C)NC(=O)c3cncs3)c2n1 [Compound 90]	≤ 50
Cc1cc(-n2nc(C)nc2C)c2cccc(OCc3c(Cl)cc(F)cc3[C@H](C)NC(=O)C(C)(C)O)c2n1 [Compound 138]	51 to 250
Cc1cc(-n2cc(F)cn2)c2cccc(OCc3c(Cl)cc(F)cc3[C@H](C)NC(=O)[C@@H]3CCC(=O)N3)c2n1 [Compound 114]	51 to 250
CCC[C@H](O)C(=O)N[C@@H](C)c1cc(F)cc(Cl)c1COc1cccc2c(-n3cc(F)cn3)cc(C)nc12 [Compound 50]	51 to 250
Cc1cc(-n2cc(F)cn2)c2cccc(OCc3c(Cl)cc(F)cc3[C@H](C)NC(=O)c3cn(C)cn3)c2n1 [Compound 108]	51 to 250
CC[C@H](O)C(=O)N[C@@H](C)c1cc(F)cc(Cl)c1COc1cccc2c(-n3cc(F)cn3)cc(C)nc12 [Compound 25]	51 to 250
Cc1cc(-c2ncnn2C)c2cccc(OCc3c(Cl)cc(F)cc3[C@H](C)NC(=O)C(F)F)c2n1 [Compound 147]	≤ 50
Cc1cc(-n2cc(F)cn2)c2cccc(OCc3c(Cl)cc(F)cc3[C@H](C)NC(=O)c3cocn3)c2n1 [Compound 82]	≤ 50
Cc1cc(-n2ncnc2C)c2cccc(OCc3c(Cl)cc(F)cc3[C@H](C)NC(=O)[C@@H](C)O)c2n1 [Compound 97]	51 to 250
Cc1cc(-n2cc(F)cn2)c2cccc(OCc3c(Cl)cc(F)cc3[C@H](CO)NC(=O)C(C)(C)O)c2n1 [Compound 105]	51 to 250
Cc1cc(-n2cc(F)cn2)c2cccc(OCc3c(Cl)cc(F)cc3[C@H](C)NC(=O)C(C)(C)C(F)(F)F)c2n1 [Compound 48]	51 to 250
Cc1cc(-n2cc(F)cn2)c2cccc(OCc3c(Cl)cc(F)cc3[C@H](C)NC(=O)C3CCO3)c2n1 (stereo partly shown) [Compound 56]	≤ 50
